This note sets out measurements from patent US20250074891A1 (Anaxis Pharma Pty Ltd., priority 2021, published 2025).

For experiment [1], the target named is MLKL (full length) (Homo sapiens (Human), UniProt Q8NB16). As to the kind of experiment: KINOMEscan binding assay, MLKL (full length). To be noted: Table 36. On the procedure:
Kinase assays. For most assays, kinase-tagged T7 phage strains were grown in parallel in 24-well blocks in an E. coli host derived from the BL21 strain. E. coli were grown to log-phase and infected with T7 phage from a frozen stock (multiplicity of infection=0.4) and incubated with shaking at 32° C. until lysis (90-150 minutes).
The Hill Slope was set to −1.

Experiment [2] has as its target endogenous MLKL in U937 (Homo sapiens (Human), UniProt Q8NB16). As to the kind of experiment: Degradation assay: degradation of endogenous MLKL in human cells (Western blot). To be noted: 24 h incubation, read-out: Degradation of endogenous MLKL in U937 (DC50 cell-based assay in μM). On the procedure: DEGRADATION ASSAY: Screening Compounds Procedure to Evaluate the Activity of Compounds in Degrading Endogenous MLKL in Human Cell
The human monocyte cell line (U937) was seeded on the day of the experiment in a 24-well plate at a cell density of 5*10^5 cells per well in a volume of 0.5 mL per well.
The compound was diluted in DMSO with a starting concentration of 10 mM and titrated stepwise with a dilution of 1:5. 0.5 μL of the compound dilution was added to the appropriate well to achieve a final concentration of 10; 2; 0.4; 0.08 and 0.016 μM. A DMSO only well was included as control.
The cells were incubated for 24 h in the presence of the compound at 37° C. and 10% CO2.
After the 24 h incubation period, the medium was removed and cells washed with 0.5 mL PBS. The cells were then lysed directly in 60 μL of 1×SDS gel loading buffer.
The cell lysate was heat-denatured at […] for 10 min. 10 μL of lysate per well were run on 18-well 4-15% Criterion TGX stain free gels (BIO-RAD). The proteins were then transferred onto nitrocellulose membrane with a wet transfer protocol in the Criterion Blotter (BIO-RAD).
Membranes were blocked with 5% skim milk in TBST. Primary antibody against MLKL (clone 3H1, MABC604 Merck) was used at 1:2000 dilution in TBST with 1% BSA and left shaking over night at 4° C. After washes with TBST, the membranes were incubated with goat anti-rat IgG HRP-conjugated antibody (Southern Biotech) in 1% skim milk TBST at 1:10000 dilution for 1 h at room temperature. After TBST washes the bands were imaged on the ChemiDoc MP Imaging Systm (BIO-RAD) with Immobilion Western Chemiluminescent HRP Substrate Forte (Millipore). The loading control GAPDH was probed for with rabbit anti-GAPDH (CST 14C10) at 1:2000 dilution in 1% BSA TBST over night at 4° C. TBST washes were followed by incubation with goat anti-rabbit IgG HRP-conjugated antibody (Southern Biotech) in 1% skim milk TBST at 1:10000 dilution for 1 h at room temperature followed by TBST washes. The signal was detected as described above.
The band intensity was measured in the ImageLab Software (BIO-RAD) and the MLKL values adjusted for loading with GAPDH. The percentage of degradation was calculated by normalizing the compound treated values to the DMSO only control.
(In general: In western blotting, separated proteins are transferred to a membrane and probed.)

For experiment [3], the system named is U937 cells. The experiment can be described thus: Counter screen: cell viability without TSQ cocktail (off-target effect). The note with it: Homo sapiens, U-937, Table 38, read-out: Off-target effect (IC50 cell-based assay). Set-up: species or system human. On the procedure:
Counter screen: In parallel, all compounds were tested for their ability to affect cell viability. The same U937 cells were treated with compound in DMSO without the TSQ cocktail. This counter screen enabled evaluation of off-target effects. In this case, cell viability was measured by CelltiterGlo.
In general terms: Counterscreens check selectivity or assay interference.

Experiment [4] has as its system U937 human histiocytic leukemia cell line. As to the kind of experiment: Cellular assay: inhibition of TSQ induced necroptosis (CellTitre-Glo). The note with it: Homo sapiens, U-937; U937 cells, TSQ cocktail, 48 hours, Table 38; read-out: Inhibition of TSQ-induced necroptosis (IC50 cell-based assay). In outline: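 U937 cells (20,000/well) pre-dosed with compound (10-point, 1:3 from 36 μM, 0.3% DMSO), then TSQ (hTNF-Fc 100 ng/ml, Smac mimetic 500 nM, Q-VD-OPh 10 μM) for 48 h at 37 °C. Viability by CellTiter-Glo luminescence, normalised to DMSO (100%) and DMSO+TSQ (0%); IC50 from 4-parameter fit.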

Molecules are shown by their SMILES.

endogenous MLKL in U937, sequence (Q8NB16 whole entry): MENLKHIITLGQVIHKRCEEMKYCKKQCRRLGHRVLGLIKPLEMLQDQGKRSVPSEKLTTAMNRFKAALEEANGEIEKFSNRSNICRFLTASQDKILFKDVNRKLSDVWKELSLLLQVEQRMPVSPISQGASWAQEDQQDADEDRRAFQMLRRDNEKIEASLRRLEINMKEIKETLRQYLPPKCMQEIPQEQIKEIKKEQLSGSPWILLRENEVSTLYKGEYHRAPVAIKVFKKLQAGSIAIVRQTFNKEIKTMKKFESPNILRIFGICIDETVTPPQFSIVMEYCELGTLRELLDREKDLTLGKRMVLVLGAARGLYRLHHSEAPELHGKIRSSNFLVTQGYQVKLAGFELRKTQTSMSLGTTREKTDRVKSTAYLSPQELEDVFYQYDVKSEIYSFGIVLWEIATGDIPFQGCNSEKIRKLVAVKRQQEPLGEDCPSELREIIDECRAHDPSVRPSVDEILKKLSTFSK
MLKL (full length), sequence (Q8NB16 whole entry): as above

Regarding `Cc1ncsc1-c1ccc(CNC(=O)[C@@H]2C[C@@H](O)CN2C(=O)[C@@H](NC(=O)CCCCOc2ccc(Nc3[nH]nc(-c4ccc(NS(=O)(=O)C(F)F)cc4)c3C(N)=O)nc2)C(C)(C)C)cc1` [Compound 1021, 3-[4-(difluoromethanesulfonamido)phenyl]-5-{[5-(4-{[(2S)-1-[(2S,4R)-4-hydroxy-2-({[4-(4-methyl-1,3-thiazol-5-yl)phenyl]methyl}carbamoyl)pyrrolidin-1-yl]-3,3-dimethyl-1-oxobutan-2-yl]carbamoyl}butoxy)pyridin-2-yl]amino}-1H-pyrazole-4-carboxamide], in experiment [1], the Kd is less than 0.01 µM. Moreover, in experiment [2], the DC50 fell in the range of 1 to 10 µM. Moreover, the IC50 in experiment [3] was more than 10 µM; in experiment [4], less than 1 µM.
For `CCS(=O)(=O)Nc1ccc(-c2n[nH]c(Nc3cnc(OCCCCC(=O)N[C@H](C(=O)N4C[C@H](O)C[C@H]4C(=O)NCc4ccc(-c5scnc5C)cc4)C(C)(C)C)cn3)c2C(N)=O)cc1OCc1ccc(F)cc1` [Compound 1023, 3-{4-ethanesulfonamido-3-[(4-fluorophenyl)methoxy]phenyl}-5-{[5-(4-{[(2S)-1-[(2S,4R)-4-hydroxy-2-({[4-(4-methyl-1,3-thiazol-5-yl)phenyl]methyl}carbamoyl)pyrrolidin-1-yl]-3,3-dimethyl-1-oxobutan-2-yl]carbamoyl}butoxy)pyrazin-2-yl]amino}-1H-pyrazole-4-carboxamide] the same measures were less than 0.01 µM, less than 1 µM, more than 10 µM and less than 1 µM.
For `CCS(=O)(=O)Nc1ccc(-c2n[nH]c(Nc3ccc(OCCCCC(=O)N[C@H](C(=O)N4C[C@H](O)C[C@H]4C(=O)NCc4ccc(-c5scnc5C)cc4)C(C)(C)C)cn3)c2C(N)=O)cc1OCc1ccc(F)cc1` [Compound 1024, 3-{4-ethanesulfonamido-3-[(4-fluorophenyl)methoxy]phenyl}-5-{[5-(4-{[(2S)-1-[(2S,4R)-4-hydroxy-2-({[4-(4-methyl-1,3-thiazol-5-yl)phenyl]methyl}carbamoyl)pyrrolidin-1-yl]-3,3-dimethyl-1-oxobutan-2-yl]carbamoyl}butoxy)pyridin-2-yl]amino}-1H-pyrazole-4-carboxamide] the same measures were less than 0.01 µM, less than 1 µM, more than 10 µM and less than 1 µM.
For `CCS(=O)(=O)Nc1ccc(-c2n[nH]c(Nc3ccc(C(=O)OCCCCC(=O)N[C@H](C(=O)N4C[C@H](O)C[C@H]4C(=O)NCc4ccc(-c5scnc5C)cc4)C(C)(C)C)cn3)c2C(N)=O)cc1O[C@@H](C)c1ccc(F)cc1` [Compound 1039, 4-{[(2S)-1-[(2S,4R)-4-hydroxy-2-({[4-(4-methyl-1,3-thiazol-5-yl)phenyl]methyl}carbamoyl)pyrrolidin-1-yl]-3,3-dimethyl-1-oxobutan-2-yl]carbamoyl}butyl 6-[(4-carbamoyl-3-{4-ethanesulfonamido-3-[(1S)-1-(4-fluorophenyl)ethoxy]phenyl}-1H-pyrazol-5-yl)amino]pyridine-3-carboxylate] the same measures were 0.01 to 1 µM, less than 1 µM, more than 10 µM and less than 1 µM.
The compound `Cc1ncsc1-c1ccc(CNC(=O)[C@@H]2C[C@@H](O)CN2C(=O)[C@@H](NC(=O)CCCCCCn2ccc(Nc3[nH]nc(-c4ccc(NS(=O)(=O)C(F)F)c(O[C@@H](C)c5ccc(F)cc5)c4)c3C(N)=O)n2)C(C)(C)C)cc1` [Compound 1040, 3-[4-(difluoromethanesulfonamido)-3-[(1S)-1-(4-fluorophenyl)ethoxy]phenyl]-5-{[1-(6-{[(2S)-1-[(2S,4R)-4-hydroxy-2-({[4-(4-methyl-1,3-thiazol-5-yl)phenyl]methyl}carbamoyl)pyrrolidin-1-yl]-3,3-dimethyl-1-oxobutan-2-yl]carbamoyl}hexyl)-1H-pyrazol-3-yl]amino}-1H-pyrazole-4-carboxamide] showed a Kd in experiment [1] of less than 0.01 µM. Also, the DC50 in experiment [2] was 1 to 10 µM. For the same compound, the IC50 is more than 10 µM in experiment [3] and less than 1 µM in experiment [4].
For `CCS(=O)(=O)Nc1ccc(-c2n[nH]c(Nc3ccc(C(=O)OCC(=O)N[C@H](C(=O)N4C[C@H](O)C[C@H]4C(=O)NCc4ccc(-c5scnc5C)cc4)C(C)(C)C)cn3)c2C(N)=O)cc1O[C@@H](C)c1ccc(F)cc1` [Compound 1041, {[(2S)-1-[(2S,4R)-4-hydroxy-2-({[4-(4-methyl-1,3-thiazol-5-yl)phenyl]methyl}carbamoyl)pyrrolidin-1-yl]-3,3-dimethyl-1-oxobutan-2-yl]carbamoyl}methyl 6-[(4-carbamoyl-3-{4-ethanesulfonamido-3-[(1S)-1-(4-fluorophenyl)ethoxy]phenyl}-1H-pyrazol-5-yl)amino]pyridine-3-carboxylate] the same measures were less than 0.01 µM, less than 1 µM, more than 10 µM and less than 1 µM.
For `Cc1ncsc1-c1ccc(CNC(=O)[C@@H]2C[C@@H](O)CN2C(=O)[C@@H](NC(=O)CCCCCCCn2ccc(Nc3[nH]nc(-c4ccc(NS(=O)(=O)C(F)F)c(O[C@@H](C)c5ccc(F)cc5)c4)c3C(N)=O)n2)C(C)(C)C)cc1` [Compound 1042, 3-[4-(difluoromethanesulfonamido)-3-[(1S)-1-(4-fluorophenyl)ethoxy]phenyl]-5-{[1-(7-{[(2S)-1-[(2S,4R)-4-hydroxy-2-({[4-(4-methyl-1,3-thiazol-5-yl)phenyl]methyl}carbamoyl)pyrrolidin-1-yl]-3,3-dimethyl-1-oxobutan-2-yl]carbamoyl}heptyl)-1H-pyrazol-3-yl]amino}-1H-pyrazole-4-carboxamide] the same measures were less than 0.01 µM, 1 to 10 µM, 1 to 10 µM and less than 1 µM.
Compound `CCS(=O)(=O)Nc1ccc(-c2n[nH]c(Nc3ccc(C(=O)OCCCC(=O)N[C@H](C(=O)N4C[C@H](O)C[C@H]4C(=O)NCc4ccc(-c5scnc5C)cc4)C(C)(C)C)cn3)c2C(N)=O)cc1O[C@@H](C)c1ccc(F)cc1` [Compound 1043, 3-{[(2S)-1-[(2S,4R)-4-hydroxy-2-({[4-(4-methyl-1,3-thiazol-5-yl)phenyl]methyl}carbamoyl)pyrrolidin-1-yl]-3,3-dimethyl-1-oxobutan-2-yl]carbamoyl}propyl 6-[(4-carbamoyl-3-{4-ethanesulfonamido-3-[(1S)-1-(4-fluorophenyl)ethoxy]phenyl}-1H-pyrazol-5-yl)amino]pyridine-3-carboxylate] registered a Kd in experiment [1] of less than 0.01 µM. Besides, the DC50 in experiment [2] is less than 1 µM. Also, the IC50 in experiment [3] was more than 10 µM; in experiment [4], less than 1 µM.
The compound `Cc1ncsc1-c1ccc(CNC(=O)[C@@H]2C[C@@H](O)CN2C(=O)[C@@H](NC(=O)c2ccc(Cn3ccc(Nc4[nH]nc(-c5ccc(NS(=O)(=O)C(F)F)c(O[C@@H](C)c6ccc(F)cc6)c5)c4C(N)=O)n3)cc2)C(C)(C)C)cc1` [Compound 1045, 3-[4-(difluoromethanesulfonamido)-3-[(1S)-1-(4-fluorophenyl)ethoxy]phenyl]-5-({1-[(4-{[(2S)-1-[(2S,4R)-4-hydroxy-2-({[4-(4-methyl-1,3-thiazol-5-yl)phenyl]methyl}carbamoyl)pyrrolidin-1-yl]-3,3-dimethyl-1-oxobutan-2-yl]carbamoyl}phenyl)methyl]-1H-pyrazol-3-yl}amino)-1H-pyrazole-4-carboxamide] had a Kd in experiment [1] of less than 0.01 µM. The DC50 in experiment [2] was less than 1 µM. For the same compound, the IC50 in experiment [3] was more than 10 µM; in experiment [4], less than 1 µM.

The Kd is the concentration at which binding is half-saturated. A low value points to higher affinity. The DC50 is the concentration at which degradation of the target reaches its halfway point. In general, IC50 refers to the concentration that gives 50% inhibition.
